Experimental data: article PMC12693701, “Glucosinolate-Derived Metabolites from Barbarea vulgaris (Brassicaceae): Evaluation of Antimicrobial, Antioxidant, and Anti-Inflammatory Potentials” (Molecules, 2025)
≈ marks a conversion by molar mass, not a printed value.

Assays:
C. albicans ATCC 10231 = assay: Microdilution MIC/MMC with resazurin; format: cell-based, Candida albicans; conditions: C. albicans ATCC 10231, reference antibiotics/antimycotic; for MIC: Candida albicans, ATCC10231, read-out: MIC
Method: (§1) The antimicrobial activity was evaluated against 15 microorganisms. This included 11 bacterial strains: four standard strains (Staphylococcus aureus ATCC 25923, Bacillus subtilis ATCC 6633, Bacillus pumilus NCTC 8241, and Escherichia coli ATCC 25922) and six clinical or environmental isolates (Staphylococcus aureus, Escherichia coli, Bacillus cereus, Proteus mirabilis, Salmonella enterica, and Klebsiella pneumoniae). One probiotic strain, Bifidobacterium animalis subsp. lactis was tested. In addition, four fungal strains, Candida albicans ATCC 10231, Trichoderma viride ATCC 13233, Aspergillus flavus ATCC 9170, and Fusarium solani ATCC 11712 were tested. The bacterial strains were kept in glycerol stock at −80 °C and the fungal strains in paraffin oil stock at 4 °C.
(§2) Bacterial and yeast suspensions were prepared using the direct colony method, as previously described by Andrews. The turbidity of the initial suspensions was adjusted to match the 0.5 McFarland standard using a densitometer (Biosan, Riga, Latvia), corresponding to approximately 10^8 colony-forming units (CFU)/mL for bacterial cells and 10^6 CFU/mL for yeast cells. Subsequently, 1:100 dilutions of the initial suspensions were prepared in sterile 0.85% saline. Fungal spore suspensions were obtained by gently harvesting spores from agar slopes containing mature mycelial growth. The collected spore suspensions were then diluted 1:1000 in sterile 0.85% saline prior to use.
(§3) Antimicrobial activity was evaluated by determining the minimum inhibitory concentration (MIC) and minimum microbicidal concentration (MMC) using the microdilution plate method with resazurin as an indicator [28]. In the 96-well plates, 100 μL of Mueller–Hinton broth (Torlak, Belgrade, Serbia) for bacterial testing and Sabouraud broth (Torlak, Belgrade, Serbia) for fungal testing were dispensed into each well. The compounds under investigation were initially dissolved in a 10% dimethyl sulfoxide (DMSO) solution, followed by dilution in sterile distilled water, resulting in a working compound solution containing 1% DMSO. A 100 μL aliquot of the stock solution of the tested compound was added to the first row, and twofold serial dilutions were then carried out using a multichannel pipette. The resulting concentration range was from 5 to 0.039 mg/mL. The inoculated microtiter plates were incubated at 37 °C for 24 h for bacteria, at 28 °C for 48 h for yeasts, and at 28 °C for 72 h for molds.
(§4) Each test also included growth control and sterility control. All tests were conducted in duplicate. MIC was defined as the lowest concentration of tested compounds that prevented resazurin color change from blue to pink. For molds, MIC values of the tested compound were determined as the lowest concentration that inhibited visible mycelia growth. MMC was determined by inoculation of the nutrient agar medium by plating […] of samples from wells, where no indicator color change was recorded. At the end of the incubation period, the lowest concentration with no growth (no colony) was defined as MMC.
(§5) Doxycycline, ampicillin and amphotericin B (- Sigma-Aldrich, St. Louis, MO, USA) and ketoconazole (Hemofarm A.D., Vršac, Serbia) were dissolved in a nutrient liquid medium. Doxycycline is a broad-spectrum antibiotic effective against both aerobic and anaerobic Gram-positive and Gram-negative bacteria. Ampicillin, a beta-lactam antibiotic, primarily targets Gram-positive bacteria but also some Gram-negative strains. Amphotericin B is an antifungal drug often used for serious systemic fungal infections and is one of the effective treatments for fungal infections caused by Aspergillus sp. Ketoconazole is an antifungal agent used to inhibit the growth of Candida species.

A. flavus ATCC 9170 = assay: Microdilution MIC/MMC; format: cell-based, Aspergillus flavus; conditions: A. flavus ATCC 9170, reference antibiotics/antimycotic; for MIC: Aspergillus flavus, ATCC9170, read-out: MIC
Method: as §1, §2, §3, §4, §5

T. viride ATCC 13233 = assay: Microdilution MIC/MMC; format: cell-based, Trichoderma viride; conditions: T. viride ATCC 13233, reference antibiotics/antimycotic; for MIC: Trichoderma viride, ATCC13233, read-out: MIC
Method: as §1, §2, §3, §4, §5

[1] = test system: B. animalis subsp. lactis; assay: Microdilution MIC/MMC with resazurin; format: cell-based, Bifidobacterium animalis subsp. lactis; conditions: B. animalis subsp. lactis, reference antibiotics/antimycotic; for MIC: Bifidobacterium animalis, read-out: MIC
Method: as §1, §2, §3, §4, §5

B. subtilis ATCC 6633 = assay: Microdilution MIC/MMC with resazurin; format: cell-based, Bacillus subtilis; conditions: B. subtilis ATCC 6633, reference antibiotics/antimycotic; for MIC: Bacillus subtilis, ATCC6633, read-out: MIC
Method: as §1, §2, §3, §4, §5

P. mirabilis = assay: Microdilution MIC/MMC with resazurin; format: cell-based, Proteus mirabilis; conditions: P. mirabilis, reference antibiotics/antimycotic; for MIC: Proteus mirabilis, read-out: MIC
Method: as §1, §2, §3, §4, §5

K. pneumoniae = assay: Microdilution MIC/MMC with resazurin; format: cell-based, Klebsiella pneumoniae; conditions: K. pneumoniae, reference antibiotics/antimycotic; for MIC: Klebsiella pneumoniae, read-out: MIC
Method: as §1, §2, §3, §4, §5

S. aureus ATCC 25923 = assay: Microdilution MIC/MMC with resazurin; format: cell-based, Staphylococcus aureus; conditions: S. aureus ATCC 25923, reference antibiotics/antimycotic; for MIC: Staphylococcus aureus, ATCC25923, read-out: MIC
Method: as §1, §2, §3, §4, §5

S. aureus = assay: Microdilution MIC/MMC with resazurin; format: cell-based, Staphylococcus aureus; conditions: S. aureus isolate, reference antibiotics/antimycotic; for MIC: Staphylococcus aureus, read-out: MIC
Method: as §1, §2, §3, §4, §5

B. cereus = assay: Microdilution MIC/MMC with resazurin; format: cell-based, Bacillus cereus; conditions: B. cereus, reference antibiotics/antimycotic; for MIC: Bacillus cereus, read-out: MIC
Method: as §1, §2, §3, §4, §5

E. coli ATCC 25922 = assay: Microdilution MIC/MMC with resazurin; format: cell-based, Escherichia coli; conditions: E. coli ATCC 25922, reference antibiotics/antimycotic; for MIC: Escherichia coli, ATCC25922, read-out: MIC
Method: as §1, §2, §3, §4, §5

E. coli = assay: Microdilution MIC/MMC with resazurin; format: cell-based, Escherichia coli; conditions: E. coli isolate, reference antibiotics/antimycotic; for MIC: Escherichia coli, read-out: MIC
Method: as §1, §2, §3, §4, §5

S. enterica = assay: Microdilution MIC/MMC with resazurin; format: cell-based, Salmonella enterica; conditions: reference antibiotics/antimycotic; for MIC: Salmonella enterica
Method: as §1, §2, §3, §4, §5

B. pumilus NCTC 8241 = assay: Microdilution MIC/MMC with resazurin; format: cell-based, Bacillus pumilus; conditions: B. pumilus NCTC 8241, reference antibiotics/antimycotic
Method: as §1, §2, §3, §4, §5

[2] = ABTS radical scavenging assay; conditions: mean ± SD
Method: The ABTS radical cation solution was prepared following the previously described protocol. Different concentrations of the analyzed samples were prepared in DMSO. The test samples were prepared following the specified procedure: 20 µL of sample was combined with 980 µL of methanol, followed by the addition of 1000 µL of ABTS solution. Absorbance was measured at 734 nm. All measurements were performed in triplicate.

F. solani ATCC 11712 = assay: Microdilution MIC/MMC; format: cell-based, Fusarium solani; conditions: F. solani ATCC 11712, reference antibiotics/antimycotic
Method: as §1, §2, §3, §4, §5

Q: What does the source list for C[C@@H]1[C@H](O)[C@@H](C)/C=C/C=C/C=C/C=C/C=C/C=C/C=C/[C@H](O[C@@H]2O[C@H](C)[C@@H](O)[C@H](N)[C@@H]2O)C[C@@H]2O[C@](O)(C[C@@H](O)C[C@@H](O)[C@H](O)CC[C@@H](O)C[C@@H](O)CC(=O)O[C@H]1C)C[C@H](O)[C@H]2C(=O)O [Amphotericin B, reference compound]?
A: MMC (C. albicans ATCC 10231): <0.098 µg/mL; MIC (C. albicans ATCC 10231): < 0.098 µg/mL; MMC (A. flavus ATCC 9170): 0.78 µg/mL; MIC (A. flavus ATCC 9170): 0.39 µg/mL (≈ 0.422 µM); MMC (T. viride ATCC 13233): 1.56 µg/mL; MIC (T. viride ATCC 13233): 0.78 µg/mL (≈ 0.844 µM)

Q: For C[C@H]1c2cccc(O)c2C(=O)C2=C(O)[C@]3(O)C(=O)C(C(N)=O)=C(O)[C@@H](N(C)C)[C@@H]3[C@@H](O)[C@@H]21 [Doxycycline, reference compound], which MMC [1] is on record?
A: 8 µg/mL

Q: What about the MIC [1] of the same compound?
A: 4 µg/mL (≈ 9 µM)

Q: And the MMC (B. subtilis ATCC 6633)?
A: 31.25 µg/mL

Q: What about the MIC (B. subtilis ATCC 6633) of the same compound?
A: 1.95 µg/mL (≈ 4.39 µM)

Q: What about the MMC (P. mirabilis) of the same compound?
A: 62.5 µg/mL

Q: What about the MIC (P. mirabilis) of the same compound?
A: 15.6 µg/mL (≈ 35.2 µM)

Q: What about the MMC (K. pneumoniae) of the same compound?
A: 32 µg/mL

Q: And the MIC (K. pneumoniae)?
A: 2 µg/mL (≈ 4.5 µM)

Q: And the MMC (S. aureus ATCC 25923)?
A: 3.75 µg/mL

Q: And the MIC (S. aureus ATCC 25923)?
A: 0.224 µg/mL (≈ 0.504 µM)

Q: And the MMC (S. aureus)?
A: 7.81 µg/mL

Q: What about the MIC (S. aureus) of the same compound?
A: 0.45 µg/mL (≈ 1.01 µM)

Q: And the MMC (B. cereus)?
A: 7.81 µg/mL

Q: What about the MIC (B. cereus) of the same compound?
A: 0.977 µg/mL (≈ 2.2 µM)

Q: And the MMC (E. coli ATCC 25922)?
A: 31.25 µg/mL

Q: What about the MIC (E. coli ATCC 25922) of the same compound?
A: 15.6 µg/mL (≈ 35.2 µM)

Q: What about the MMC (E. coli) of the same compound?
A: 62.5 µg/mL

Q: And the MIC (E. coli)?
A: 15.6 µg/mL (≈ 35.2 µM)

Q: And the MIC (S. enterica)?
A: 15.6 µg/mL (≈ 35.2 µM)

Q: Which results are given for CC1(C)S[C@@H]2[C@H](NC(=O)[C@H](N)c3ccccc3)C(=O)N2[C@H]1C(=O)O [Ampicillin, reference compound]?
A: MMC [1]: 0.12 µg/mL; MIC [1]: < 0.06 µg/mL; MMC (B. subtilis ATCC 6633): 4 µg/mL; MIC (B. subtilis ATCC 6633): 3 µg/mL (≈ 8.59 µM); MMC (P. mirabilis): >128 µg/mL; MIC (P. mirabilis): > 128 µg/mL; MMC (K. pneumoniae): >128 µg/mL; MIC (K. pneumoniae): > 128 µg/mL; MMC (S. aureus ATCC 25923): 0.75 µg/mL; MIC (S. aureus ATCC 25923): 0.25 µg/mL (≈ 0.715 µM); MMC (S. aureus): <0.06 µg/mL; MIC (S. aureus): < 0.06 µg/mL; MMC (B. pumilus NCTC 8241): 12 µg/mL; MIC (B. pumilus NCTC 8241; Bacillus pumilus, NCTC8241, read-out: MIC): 8 µg/mL (≈ 22.9 µM); MMC (B. cereus): 6 µg/mL; MIC (B. cereus): 4 µg/mL (≈ 11.4 µM); MMC (E. coli ATCC 25922): 0.5 µg/mL; MIC (E. coli ATCC 25922): 0.37 µg/mL (≈ 1.06 µM); MMC (E. coli): 2.1 µg/mL; MIC (E. coli): 1.2 µg/mL (≈ 3.43 µM); MIC (S. enterica): 1 µg/mL (≈ 2.86 µM); MMC (S. enterica): 1 µg/mL

Q: What does the source list for Cc1c(C)c2c(c(C)c1O)CCC(C)(C(=O)O)O2 (stereo not shown) [Trolox, reference compound]?
A: ABTS Scavenging Ability ([2]; 25 µM): 97.5 ± 0.2%; ABTS Scavenging Ability ([2]; 50 µM): 99.3 ± 0.1%; ABTS Scavenging Ability ([2]; 100 µM): 99.5 ± 0.3%

Q: Which results are given for CC(=O)N1CCN(c2ccc(OCC3COC(Cn4ccnc4)(c4ccc(Cl)cc4Cl)O3)cc2)CC1 (stereo not shown) [Ketoconazole, reference compound]?
A: MMC (C. albicans ATCC 10231): 1.96 µg/mL; MIC (C. albicans ATCC 10231): 1.96 µg/mL (≈ 3.69 µM); MMC (A. flavus ATCC 9170): 1.96 µg/mL; MIC (A. flavus ATCC 9170): < 0.49 µg/mL; MMC (F. solani ATCC 11712): 0.156 µg/mL; MIC (F. solani ATCC 11712; Fusarium solani, ATCC11712, read-out: MIC): 0.08 µg/mL (≈ 0.151 µM); MMC (T. viride ATCC 13233): 125 µg/mL; MIC (T. viride ATCC 13233): 62.5 µg/mL (≈ 118 µM)
